From paper PMC3545186 (Biochemical Pharmacology, 2013)
Numbered stars: 1 amine (or outer) side, 2 acyl side, 3 side chain; on linkers, the order of the positions; unused ones are H or OH. Bridge positions count the residues as written; N and C are the ends. Square brackets hold non-standard residues; d marks the D form. Peptide text beside a SMILES is read from it. I, II: the chains in the order shown. Actinocin(9to1) = Cc1c2oc3c(C)ccc(C(=O)[*:1])c3nc-2c(C(=O)[*:2])c(N)c1=O; NMeV = CN[C@H](C(=O)O)C(C)C; Sar = CNCC(=O)O

Legend:
MDCKII-ABCB1 cells = experiment: Cellular efflux of Act D after 4 h uptake; type: in vitro ADME, canine; settings: MDCKII-ABCB1, after 4 h with 0.1 μM Act D
MDCKII-ABCC2 cells = experiment: Intracellular accumulation of Act D; type: in vitro ADME, canine
MDCKII-ABCG2 cells = experiment: Growth inhibition; type: cell-based, canine; settings: MDCKII-ABCG2, Act D alone or with KO143, p = 0.74
ABCG2 (BCRP) = experiment: Growth inhibition; type: cell-based, canine; settings: dog, MDCKII cells transfected with human ABCG2 (BCRP)

reduction in intracellular Act D over 2 h after drug removal (MDCKII-ABCB1 cells): 5.5 fold | increased accumulation with MK571 compared to absence of inhibitor (MDCKII-ABCC2 cells; MDCKII-ABCC2, not statistically significant): 1.4 fold | lower accumulation of Act D compared to parental cell line (MDCKII-ABCC2 cells; MDCKII-ABCC2 vs MDCKII-WT, 12 h): 3.5 fold
SMILES: Cc1c2oc3c(C)ccc(C(=O)N[C@@H]4C(=O)N[C@H](C(C)C)C(=O)N5CCC[C@H]5C(=O)N(C)CC(=O)N(C)[C@@H](C(C)C)C(=O)O[C@@H]4C)c3nc-2c(C(=O)N[C@@H]2C(=O)N[C@H](C(C)C)C(=O)N3CCC[C@H]3C(=O)N(C)CC(=O)N(C)[C@@H](C(C)C)C(=O)O[C@@H]2C)c(N)c1=O [Act D, actinomycin D] (I: T[dV]P[Sar][NMeV] / II: T[dV]P[Sar][NMeV]; ester I:1-I:C, II:1-II:C; linker I:N-II:N via Actinocin(9to1))
difference in sensitivity vs parental cell line (MDCKII-ABCG2 cells): No difference in sensitivity | GI50 at 72 h (ABCG2 (BCRP)): 14 nM
